Test results reported in US20200289527A1, “FORMULATION CONTAINING A-DECARBONIZED-5a ANDROSTANE COMPOUND FOR INCREASING WHITE BLOOD CELL AND USE THEREOF” (priority 2017, published 2020).
Where two headings read alike, the source gives them in different places. Marks after values point to notes of the source that are not given here.

What was measured:
[1] = test system: white blood cells in mice bearing Lewis lung tumor
Excerpt: The vigorously growing tumor cells were taken and prepared into cell suspension with a concentration of about 5-10×10^6/ml by homogenization under sterile condition.
At the beginning of the experiment, 10 mice were randomly sampled for blood collection by posterior orbital venous plexus puncture, and an automatic blood cell analyzer (HEMAVET-950) was used to conduct the routine blood test. Then the blood was collected for the routine blood test by the same method on the 8th and 12th days after the last administration of cyclophosphamide.

[2] = test system: white blood cells in tumor patients; details: for Effect of increasing WBC (C1/Czs): all 10 subjects, 15-45 mg total daily dose, Day 0 = 100%; for average extent of increasing white blood cells: average of subjects
Procedure: Blood was collected on the day before the administration, and the routine blood test was conducted to determine the number of white blood cells (Czs) before the subjects were treated with the medicine of the present invention.
10 subjects took ACP at different administrated frequency and dose every day (see Table 2). Blood was collected from 10 subjects at Day 8, 15, 22, and 28 for routine blood test.

[3] = subject GBYI, Day 0 count 4.3, once a day, total daily dose 15 mg
[4] = subject LXJV, Day 0 count 2.7, three times a day, total daily dose 30 mg
[5] = chemotherapy control group, CTX 150/100 mg/kg ip, reference = 100%

## C#C[C@@]1(OC(C)=O)C[C@@H]2CC[C@@H]3[C@H](CC[C@@]4(C)[C@H]3CC[C@]4(C#C)OC(C)=O)[C@@]2(C)C1 [ACP1, 2α,17α-diethynyl-A-decarbonized-5α-androstane-2β,17β-dihydroxyl diacetate compound]
[1]; mouse, in vivo, 5 mg/kg
  Day 8 (10^3 WBC/μl): 4.21 ± 1.22 10^3 WBC/μl
  Day 8 (%): 1027%*
  Day 12 (10^3 WBC/μl): 4.32 ± 1.29 10^3 WBC/μl
  Day 12 (%): 292%*
[2]; Day 8
  Effect of increasing WBC (C1/Czs): 146%
[2]; Day 8, compared with before treatment
  extent of increasing white blood cells (Cl/Czs-100%): about 50%
[2]; Day 15
  Effect of increasing WBC (C1/Czs): 180%
  average extent of increasing white blood cells: about 80%
[2]; Day 15, maximum among subjects
  maximum extent of increasing white blood cells: about 178%
[2]; Day 22
  extent of increasing white blood cells: about 63%
  Effect of increasing WBC (C1/Czs): 163%
[2]; Day 28
  Effect of increasing WBC (C1/Czs): 149%
  average extent of increasing white blood cells: about 50%
[2]; [3]
  WBC count during administration, Day 8: 5.8 10^9/L
  WBC count during administration, Day 15: 6.9 10^9/L
  WBC count during administration, Day 22: 6.3 10^9/L
  WBC count during administration, Day 28: 7.0 10^9/L
[2]; [4]
  WBC count during administration, Day 8: 5.9 10^9/L
  WBC count during administration, Day 15: 7.5 10^9/L
  WBC count during administration, Day 22: 6.0 10^9/L
  WBC count during administration, Day 28: 6.1 10^9/L

## O=P1(N(CCCl)CCCl)NCCCO1 (centres unmarked) [CTX, cyclophosphamide]
[1]; chemotherapy control group
  effect on white blood cells of peripheral blood in mice: caused a decrease of white blood cells of peripheral blood in mice
[1]; chemotherapy control group, CTX 150/100 mg/kg ip, 8th day after last CTX
  Day 8 (10^3 WBC/μl): 0.41 ± 0.07 10^3 WBC/μl
[1]; chemotherapy control group, CTX 150/100 mg/kg ip, 12th day after last CTX
  Day 12 (10^3 WBC/μl): 1.48 ± 0.37 10^3 WBC/μl
[1]; [5]
  Day 8 (%): 100%
  Day 12 (%): 100%
